The values that follow come from PubChem BioAssay (NCI).

“And” between values parts separate entries of the source, which are not always exact repeats. Identical values can stand only once.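 All cell lines were grown in 96-well plates and treated with compound for 48 hours. GI50 is the concentration that inhibits growth by half. TGI: total growth inhibition.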 Bounds are passed on as bounds.

Some test systems named below: DU-145 prostate; 786-0 renal; T-47D breast; OVCAR-4 ovarian; MCF7 breast; SK-MEL-2 melanoma; RXF 393 renal; CAKI-1 renal; SR leukemia; SF-295 CNS.
Holding throughout (assay): inhibition of tumour cell growth, NCI panel, 48 h

Consider `C#Cc1ccc(-n2c(/C=C/c3ccc4ccccc4c3)nc3ncccc3c2=O)cc1`, for which the GI50 in the test with DU-145 prostate is 7.45 µM; in the test with 786-0 renal, 4.08 µM; with T-47D breast it was 3.9 µM; in the test with OVCAR-4 ovarian, 1.95 µM; with MCF7 breast, 2.43 µM; in the test with SK-MEL-2 melanoma, 2.41 µM. Besides, the GI50 was 1.79 µM with RXF 393 renal, 2.98 µM with CAKI-1 renal and 1.4 µM in the test with SR leukemia. The TGI with DU-145 prostate is more than 100 µM; in the test on 786-0 renal, more than 100 µM; with T-47D breast it was more than 100 µM; with OVCAR-4 ovarian, more than 100 µM; in the test on MCF7 breast, more than 100 µM; in the test with SK-MEL-2 melanoma, 6.2 µM. The TGI with RXF 393 renal was 5.47 µM; in the test on CAKI-1 renal, more than 100 µM; in the test on SR leukemia, more than 100 µM.

With `CCN(CCO)CCCOc1ccc2c(Nc3cc(CC(=O)Nc4cccc(F)c4)[nH]n3)ncnc2c1`, the GI50 in the test with DU-145 prostate is 34.5 µM; in the test with 786-0 renal, more than 70.1 µM; in the test with T-47D breast, 13.9 µM; in the test with OVCAR-4 ovarian, 19.4 µM; in the test with SK-MEL-2 melanoma, 16.9 µM; with CAKI-1 renal, more than 36.5 µM. The TGI in the test with DU-145 prostate was more than 100 µM; in the test with 786-0 renal, more than 100 µM; in the test on SF-295 CNS, more than 100 µM; in the test with T-47D breast it was 42.7 µM and > 2.45 µM; in the test with OVCAR-4 ovarian it was more than 100 µM; in the test with MCF7 breast, 22.5 µM and > 4.11 µM. Further, the TGI in the test with SK-MEL-2 melanoma was 35.4 µM and > 2.16 µM; with CAKI-1 renal it was more than 100 µM; in the test with SR leukemia, 28 µM and > 3.87 µM.

Consider `O=C(Nc1ccccc1)Nc1ccc(Cl)c(Cl)c1`, for which the GI50 is 3.69 µM in the test with DU-145 prostate; 3.7 µM with 786-0 renal; 2.89 µM in the test on SF-295 CNS; 2.57 µM in the test with T-47D breast; 3.34 µM with OVCAR-4 ovarian; 3.14 µM with MCF7 breast. In addition, the values for the GI50 in the test with SK-MEL-2 melanoma, in the test with RXF 393 renal and in the test on CAKI-1 renal were 2.32 µM, 6.31 µM and 2.71 µM, respectively. Besides, the TGI is more than 100 µM in the test with DU-145 prostate; more than 100 µM in the test on 786-0 renal; 21.5 µM in the test with SF-295 CNS; more than 100 µM in the test on T-47D breast; 71.5 µM in the test with OVCAR-4 ovarian; 73.3 µM in the test on MCF7 breast. In addition, the TGI is 9.97 µM in the test on SK-MEL-2 melanoma, 33.8 µM with RXF 393 renal and 24.7 µM in the test on CAKI-1 renal.

In the case of `COC(=O)C1(C)CCCC2(C)c3cc(OC)ccc3C(=O)C(Br)C12` (centres undefined), the TGI was more than 10 µM in the test on DU-145 prostate; 4.21 µM with 786-0 renal; more than 10 µM in the test with SF-295 CNS; more than 10 µM in the test on T-47D breast; more than 10 µM in the test with MCF7 breast; more than 10 µM in the test on SK-MEL-2 melanoma. Further, the TGI with RXF 393 renal, with CAKI-1 renal and in the test on SR leukemia was more than 10 µM throughout.

In the case of `Cc1c(O)c(Br)c(C)c(O)c1Br` (tested in a mixture with another compound), the TGI with DU-145 prostate was determined as 5.15 µM; in the test on 786-0 renal, 3.2 µM; in the test on SF-295 CNS, 37.1 µM; in the test with T-47D breast it was 5.54 µM; in the test with OVCAR-4 ovarian, 3.04 µM; in the test with SK-MEL-2 melanoma, 10.7 µM. The values for the TGI in the test on RXF 393 renal, in the test on CAKI-1 renal and with SR leukemia were 3.33 µM, 3.67 µM and 3.28 µM, respectively.

Take `CNCCN(C)Cc1cn[nH]c1-c1ccc(OC2CC(OCCC3CCOCC3)C2)cc1` (centres undefined): the GI50 in the test on DU-145 prostate was more than 100 µM; in the test on 786-0 renal, more than 100 µM; in the test on SF-295 CNS, 49.9 µM; in the test on T-47D breast, 27.8 µM; with OVCAR-4 ovarian it was more than 85 µM; with MCF7 breast, more than 81.2 µM. For the same compound, the GI50 in the test on SK-MEL-2 melanoma was more than 100 µM; in the test on RXF 393 renal, 48.5 µM; in the test on SR leukemia, 25.9 µM. For the same compound, the TGI in the test with DU-145 prostate, in the test with 786-0 renal, in the test on SF-295 CNS, with T-47D breast, with OVCAR-4 ovarian and in the test with MCF7 breast was more than 100 µM throughout. Further, the TGI with SK-MEL-2 melanoma, in the test with RXF 393 renal and in the test on SR leukemia was more than 100 µM in each case.

On to `O=C(c1ccco1)c1c(C(F)(F)F)n([O-])c2ccc(F)cc2[n+]1=O`, for which the GI50 in the test on DU-145 prostate is 2.24 µM; with 786-0 renal, 1.27 µM; in the test on SF-295 CNS it was 4.69 µM; in the test on T-47D breast, 0.54 µM; in the test with OVCAR-4 ovarian it was 1.35 µM; with MCF7 breast, 0.258 µM. Moreover, the figures for the GI50 with SK-MEL-2 melanoma, in the test on RXF 393 renal and with CAKI-1 renal were 0.91 µM, 0.759 µM and 1.6 µM, respectively. The TGI with DU-145 prostate stood at 7.04 µM; in the test on 786-0 renal, 3.94 µM; with SF-295 CNS, 17.9 µM; with T-47D breast, 3.21 µM; with OVCAR-4 ovarian, 2.64 µM; in the test with MCF7 breast, 1.89 µM. Also, the figures for the TGI in the test with SK-MEL-2 melanoma, with RXF 393 renal and in the test with CAKI-1 renal were 2.47 µM, 2.14 µM and 3.26 µM, respectively.

Take `Cc1cc2c(cc1Cl)SC(C(=O)c1ccc(Cl)c(Cl)c1)NS2(=O)=O` (centres undefined): the GI50 is 32.8 µM in the test with DU-145 prostate; 37.3 µM with 786-0 renal; 34.9 µM with SF-295 CNS; 19.9 µM with T-47D breast; 27.1 µM with OVCAR-4 ovarian; 21.2 µM with MCF7 breast. The GI50 in the test with SK-MEL-2 melanoma was 40.2 µM; in the test with CAKI-1 renal it was 97.4 µM; in the test on SR leukemia, 31.4 µM. Besides, the TGI in the test with DU-145 prostate is 87.6 µM; in the test with 786-0 renal it was 97 µM; in the test on SF-295 CNS, more than 100 µM; in the test with T-47D breast it was 49.9 µM; in the test on OVCAR-4 ovarian, 71.5 µM; in the test on MCF7 breast, 47.3 µM. In addition, the results for the TGI with SK-MEL-2 melanoma, in the test on CAKI-1 renal and in the test with SR leukemia were more than 100 µM, more than 100 µM and 81.8 µM, respectively.

Consider `CC1(C)OC(=O)C(=Cc2ccc([N+](=O)[O-])s2)C(=O)O1`, for which the TGI in the test on DU-145 prostate was 30.9 µM; with 786-0 renal, 32.2 µM; in the test with SF-295 CNS it was 30.4 µM; with T-47D breast it was 38 µM; in the test with MCF7 breast, 68.4 µM; in the test on CAKI-1 renal, 29.5 µM. Moreover, the TGI in the test on SR leukemia amounted to 6.31 µM.

For `CCCCCCSc1nc(COC(=O)NC)c(COC(=O)NC)n1C`, the TGI in the test with DU-145 prostate, in the test on 786-0 renal, in the test with SF-295 CNS, in the test with T-47D breast, in the test with OVCAR-4 ovarian and in the test with MCF7 breast was more than 100 µM throughout. The TGI with SK-MEL-2 melanoma, with CAKI-1 renal and with SR leukemia was more than 100 µM each time.
